The values below come from patent EP2440179B1, “CHITOSAN OLIGOSACCHARIDE-BASED COMPOSITIONS” (Teslenko, Alexander, priority 2009, dated 2010).

The test system of data set [1] is Walker-Carciosarcom. As to the kind of experiment: Photodynamic therapy in tumour-bearing rats: malondialdehyde in tumour homogenate (2-thiobarbituric acid). Type of data set: in vivo, Ratten. To be noted: marker of oxidative stress. The text has this:
Der Nachweis der therapeutischen Wirkung von COS-ALA-Addukten erfolgte an insgesamt 60 Ratten mit einem Walker-Carciosarcom (30 Verum- und 30 Kontrolltiere). Die Tumore […] worden, die photodynamische Therapie mit COS-ALA wurde durchgeführt, wenn die Tumoren eine Große von 1 cm^3 erreicht hatten. Zur Behandlung […], Frankfurt/M.) mit monochromatischem […] λ = 634 nm. Die Bestrahlungsdosis betrug 37 J/cm^2, die […]. […] Dazu wurden die Tiere getötet, die Tumore […] und deren Gewicht und […] histologische Untersuchungen wurde Gewebe in 10 %iger Formalinlösung fixiert. Zur Bestimung des oxidativen Stress in den Tumorhomogenisaten diente der Gehalt an Malondialdehyd, der mit Hilfe der 2-Thiobarbitursäure bestimmt wurde.

Data set [2] has as its system Walker-Carciosarcom. As to the kind of experiment: Photodynamic therapy in tumour-bearing rats: histological/cytological examination of tumour necrosis. Type of data set: in vivo, Ratten.
Description: Der Nachweis der therapeutischen Wirkung von COS-ALA-Addukten erfolgte an insgesamt 60 Ratten mit einem Walker-Carciosarcom (30 Verum- und 30 Kontrolltiere). Die Tumore waren den Tieren implantiert worden, die photodynamische Therapie mit COS-ALA wurde durchgeführt, wenn die Tumoren eine Große von 1 cm^3 erreicht hatten.
Zur Behandlung diente eine Lampe "[sequence]" (Galdena AG, Frankfurt/M.) mit monochromatischem Licht der Wellenlänge λ = 634 nm. Die Bestrahlungsdosis betrug 37 J/cm^2, die mittlere Energie 8,5 W. Die behandelten Gruppen bestanden aus jeweils 6 Tieren, die nach 1, 2, 3, 5, 6 und 24 Stunden sowie 2 Wochen untersucht wurden. Dazu wurden die Tiere getötet, die Tumore exstirpiert und deren Gewicht und Größe gemessen. Für histologische Untersuchungen wurde Gewebe in 10 %iger Formalinlösung fixiert.
The format of data set [3] is in vitro ADME, Schwein. To be noted: mean of 4 treated pig skins, after 2 Stunden Applikation. Here is the method:
Schweineohren wurden ohne Hautverletzungen sofort nach der Schlachtung aus einem Schlachthof abgeholt. Die Ohren wurden gründlich mit milder Seife abgewaschen. Unmittelbar danach wurde die subkutane Fettschicht mit dem Skalpell abgetrennt. Die Haut wurde in einem Container bei -20°C für weitere Untersuchungen aufbewahrt. Die Trennung der Epidermis von der Dermis erfolgte vorsichtig nach Erwärmung bei 60°C (1 Minute).
Die Eindringtiefe von COS-Salicylat wurde im Rahmen eines Schälverfahrens an einer Modellhaut bestimmt. Die 10%-ige COS-Salicylat-Lösung wurde auf die Hautoberfläche der Ohren aufgetragen und etwa 1 bis 2 Minuten in die Haut einmassiert. Währenddessen wurden die Ohren bei 35 °C temperiert.
Für die Schälung wurden 15 Tesafilmstreifen (Typ Tesa® Office, Beiersdorf, DE) auf eine Größe von 1,5 cm * 1,5 cm geschnitten und ausgewogen. Die auf dem Schweineohr ausgewählten Untersuchungsfelder von 2 cm * 2 cm wurden nacheinander mit den vorbereiteten Tesafilm-Streifen beklebt und danach abgezogen.
Die Streifen wurden mit Acetonitril bei 60°C im Laufe von 60 Minuten extrahiert. Die Lösungen wurden durch 0,5 µm-Membranen filtriert und mit Hilfe von HPLC analysiert.
Das Shimadzu LC-20A HPLC-System bestand aus einer Spherisorb S5 ODS2-Säule (Waters Co) und UV-Detektor. Mobile Phase war Wasser-Methanol-Acetonitril-Essigsaure. Tabelle 2: Mittelwerte der Wiederfindung aus 4 behandelten Schweinehäuten des COS-Salicylat (aus Beispiel 1) und Salicylsäure in einzelnen Hautschichten nach 2 Stunden Applikation.
Der Gehalt von COS-Salicylat in Epidermis und Dermis wurde mit Hilfe einer Franz-Zelle bestimmt.

For 5-Aminolävulinsäure [ALA], the Malondialdehyd in the data set with Walker-Carciosarcom [1] (Zeit nach PDT 1 h) was 0,25 nmol/mL; in the data set on Walker-Carciosarcom [1] (Zeit nach PDT 2 h), 0,42 nmol/mL; in the data set with Walker-Carciosarcom [1] (Zeit nach PDT 3 h), 0,47 nmol/mL; in the data set on Walker-Carciosarcom [1] (Zeit nach PDT 5 h), 0,55 nmol/mL; with Walker-Carciosarcom [1] (Zeit nach PDT 6 h), 0,61 nmol/mL; in the data set with Walker-Carciosarcom [1] (Zeit nach PDT 24 h), 0,75 nmol/mL. In addition, the “Nekrose in der Mitte des Tumorgewebes zu sehen nach” value in the data set with Walker-Carciosarcom [2] (time until necrosis is seen) stood at 72 Stunden. For the same molecule, the “Nekrose verbreitet sich auf das ganze Tumorgewebe nach” value with Walker-Carciosarcom [2] (time until necrosis of the whole tumour) worked out at 2 Wochen.
In the case of `O=C(O)c1ccccc1O` [Salicylsäure], in data set [3], the “Wiederfindung, Verteilung in Dermis” value is reported as 1,0 ± 0,15 µg/cm^2; the “Wiederfindung, Verteilung in Epidermis” value was 2,1 ± 0,2 µg/cm^2; the “Wiederfindung, Verteilung in Hornschicht” value is 5,3 ± 0,4 µg/cm^2.
